From US20030176456A1, “Methods for reducing alcohol cravings in chronic alcoholics” (priority 2001, published 2003)
pKi: −log10 of the molar value. Read-outs that look alike come from different tables or passages of the source.

Experiments:
α1β3γ2 GABAA receptor = target: T1, α1β3γ2 GABAA receptor (Homo sapiens, UniProt P14867+P18507); experiment: Binding affinity at recombinant GABAA receptors (Ltk cells stably transfected)
T1 construct: expressed in transfected cells

α2β3γ2 GABAA receptor = target: T2, α2β3γ2 GABAA receptor (Homo sapiens, UniProt P18507+P47869); experiment: as above
T2 construct: expressed in transfected cells

α3β3γ2 GABAA receptor = target: T3, α3β3γ2 GABAA receptor (Homo sapiens, UniProt P18507+P34903); experiment: as above
T3 construct: expressed in transfected cells

α5β3γ2 GABAA receptor = target: T4, α5β3γ2 GABAA receptor (Homo sapiens, UniProt P18507+P31644); experiment: as above
T4 construct: expressed in transfected cells

α6β3γ2 GABAA receptor = target: T5, α6β3γ2 GABAA receptor (Homo sapiens, UniProt P18507+Q16445); experiment: as above; conditions: recombinant αxβ3γ2; read-out: Ki α6
T5 construct: expressed in transfected cells

GABAA α1β3γ2 receptors = target: T6, GABAA α1β3γ2 receptors (Rattus norvegicus, UniProt P18508+P62813); experiment: Xenopus oocyte expression assay, modulation of GABA current; assay type: cell-based; conditions: saturating 1-10 μM modulator with EC50 GABA (50 μM); mean±S.D.
T6 construct: expressed in transfected cells; host or cells: Xenopus laevis oocytes injected with cRNA

GABAA α3β3γ2 receptors = experiment: as above; assay type: cell-based, rat; conditions: saturating 1-10 μM modulator with EC50 GABA (30 μM); mean±S.D.
[1] = system: alcohol-preferring (P) rats; experiment: Operant self-administration, concurrent FR4 schedule for EtOH and saccharin; assay type: in vivo, rat; conditions: for EtOH-maintained responding / saccharin-maintained responding: bilateral infusion 5-40 μg in NACC/caudate putamen (neuroanatomical control)
Method: Behavioral testing was conducted in 15 standard operant chambers (Coulbourn Instruments) equipped with two removable levers and two dipper fluid delivery systems enclosed in sound-attenuated cubicles as previously described (June et al., 1998a,b). A concurrent fixed-ratio schedule was employed to investigate the capacity of systemic and direct microinjections of 3-PBC in the CNS to modify EtOH and saccharin-maintained responding. The specific details of these procedures have recently been described (June et al., 1998; 1999; 2001). In brief, rats were initially trained to orally self-administer EtOH and water in daily 60 min sessions on a concurrent FRI schedule in a two-lever choice situation. After a period of stabilization on the FRI schedule, the response requirement was increased to a concurrent FR4 schedule and the water reinforcer was replaced with saccharin (0.025-0.05% w/v). The importance of alternative and concurrently presented reinforcers in examining the positive reinforcing properties of drugs of abuse has been discussed previously (Meisch and Lemaire, 1993; June et al., 2001; June in press).
3-PBC was administered 15 min before the operant session to allow for optimal absorption and CNS distribution. […] The duration of the operant sessions was 60 min, however, subjects were tested at 24 and 48 hour post drug administration to determine any residual drug effects. A minimum of 72-96 hours were allocated between drug treatments to permit animals to return to baseline levels. This period prevented confounding of drug treatments due to residual effects (for details see June et al., 1998b).
Guide cannulas were stereotaxically implanted bilaterally in the anterior (AP +0.48; ML ±1.6; DV −7.2, with 6° lateral angle) (n=8) and medial (AP −0.26; ML ±2.5; DV −7.0) (n=6) VP. The neuroanatomical control rats were bilaterally implanted in either the caudate putamen or NACC. The coordinates for the caudate putamen were AP +1.5; ML ±2.5; DV 4.2 (n=3). In the NACC group some rats were implanted in the shell [AP +1.4; ML +0.8; DV −6.0] (n=3) while others were implanted in the core [AP +1.4; ML ±1.7; DV −5.71] (n=3). All coordinates are given in millimeters relative to Bregma based on the Paxinos and Watson (1998) atlas. Subjects were given 7 days to recover from surgery before returning to training in the operant chamber. The 3-PBC infusions were delivered immediately before the operant session with a Harvard infusion pump in aCSF (composition in mM: NaCl, 120; KCl, 4.8; KH2PO4, 1.2; MgSO4, 1.2; NaHCO3, 25; CaCl2, 2.5; d-glucose, 10) as previously described (for details see June et al., 2001).
Statistical Analysis The operant maintained responding data were analyzed by a single factor repeated measures ANOVA with drug treatment (i.e., dose) as the independent factor. The dependent variables were EtOH and saccharin-maintained responding. Each dependent variable was analyzed separately. Post-hoc comparisons between individual drug treatments were made using the Newman Keuls Test in all experiments. In systemic studies, drug treatment comparisons were made against the no injection (e.g., baseline=BL) and Tween-20 vehicle control conditions. In the microinjection studies, drug treatment comparisons were made against the no injection control condition (e.g., baseline=BL) and aCSF control condition. All microinjection data were obtained and analyzed following correct histological verification under a light microscope. To determine the time course of antagonism across the 60 min session, a single factor ANOVA was conducted at each of the six-10 min intervals on the cumulative response data for the respective drug treatment conditions relative to the pooled controlled conditions. EtOH and saccharin maintained responding data were analyzed separately. Post-hoc analyses were performed on the cumulative interval data using the least significant difference (LSD) test. […]

P rats = experiment: EtOH and sucrose responding after oral (gavage) administration; assay type: in vivo, rat; conditions: for responding for sucrose: oral (gavage) 75 mg/kg; for EtOH responding / EtOH responding 24 hours after administration: oral (gavage); for EtOH responding: βCCt 15 & 30 mg/kg, 3-PBC 30-75 mg/kg, naltrexone 30-75 mg/kg; for EtOH responding 24 hours after administration: βCCt 15 & 75 mg/kg
Text: In this study we compared the suppressant effect of βCCt and 3-PBC with naltrexone, a currently used alcohol antagonist on the market. As it is shown in FIG. 29A-B, orally administered βCCt can reduce alcohol responding, however, the effects are not dose related. In addition, 24 hr after administration of βCCt, it continues to reduce alcohol responding with selected doses. […] The suppressant effects of naltrexone in reducing alcohol responding are also dissipated 24 hr after the administration. […] Unlike naltrexone, the suppressant effects observed by βCCt and 3-PBC are selective for alcohol, and not reinforcers in general.

selected rodent lines = experiment: Plus-maze test in selected rodent lines; assay type: in vivo; conditions: particularly at moderate to high doses (>7.5 mg/kg)
[2] = bilateral infusion in ventral pallidum (VP), 3-PBC 0.5-40 μg, βCCt 5-40 μg
[3] = i.p. 15 min before 60 min session, 3-PBC 1-20 mg/kg, βCCt 5-40 mg/kg
[4] = i.p., 3-PBC 1-10 mg/kg, βCCt 5-40 mg/kg

T1 sequence (P14867 28-456): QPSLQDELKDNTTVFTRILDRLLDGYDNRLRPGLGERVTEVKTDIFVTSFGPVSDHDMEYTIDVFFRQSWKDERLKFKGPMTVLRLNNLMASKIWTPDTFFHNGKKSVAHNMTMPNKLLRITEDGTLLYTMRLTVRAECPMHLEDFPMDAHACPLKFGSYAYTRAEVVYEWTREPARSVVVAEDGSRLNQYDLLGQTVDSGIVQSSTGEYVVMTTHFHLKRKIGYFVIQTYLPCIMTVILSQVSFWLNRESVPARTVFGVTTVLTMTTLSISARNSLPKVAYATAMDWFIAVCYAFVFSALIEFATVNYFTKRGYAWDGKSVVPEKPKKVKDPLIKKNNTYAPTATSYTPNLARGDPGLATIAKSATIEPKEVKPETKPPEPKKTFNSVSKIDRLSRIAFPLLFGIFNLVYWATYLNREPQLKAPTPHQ
T1 sequence (P28472 26-473 partner): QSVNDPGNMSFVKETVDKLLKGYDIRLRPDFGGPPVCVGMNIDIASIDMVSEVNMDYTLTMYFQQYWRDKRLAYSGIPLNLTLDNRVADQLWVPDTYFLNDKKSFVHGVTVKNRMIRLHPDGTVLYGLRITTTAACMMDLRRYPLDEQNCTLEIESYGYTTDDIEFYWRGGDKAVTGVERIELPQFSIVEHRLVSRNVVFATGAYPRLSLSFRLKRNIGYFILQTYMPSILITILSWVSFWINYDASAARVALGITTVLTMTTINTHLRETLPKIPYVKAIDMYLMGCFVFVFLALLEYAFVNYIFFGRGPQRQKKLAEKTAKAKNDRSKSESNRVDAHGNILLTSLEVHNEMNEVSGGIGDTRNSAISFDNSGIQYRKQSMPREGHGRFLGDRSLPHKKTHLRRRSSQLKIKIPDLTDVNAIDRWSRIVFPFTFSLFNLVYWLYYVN
T1 sequence (P18507 40-475): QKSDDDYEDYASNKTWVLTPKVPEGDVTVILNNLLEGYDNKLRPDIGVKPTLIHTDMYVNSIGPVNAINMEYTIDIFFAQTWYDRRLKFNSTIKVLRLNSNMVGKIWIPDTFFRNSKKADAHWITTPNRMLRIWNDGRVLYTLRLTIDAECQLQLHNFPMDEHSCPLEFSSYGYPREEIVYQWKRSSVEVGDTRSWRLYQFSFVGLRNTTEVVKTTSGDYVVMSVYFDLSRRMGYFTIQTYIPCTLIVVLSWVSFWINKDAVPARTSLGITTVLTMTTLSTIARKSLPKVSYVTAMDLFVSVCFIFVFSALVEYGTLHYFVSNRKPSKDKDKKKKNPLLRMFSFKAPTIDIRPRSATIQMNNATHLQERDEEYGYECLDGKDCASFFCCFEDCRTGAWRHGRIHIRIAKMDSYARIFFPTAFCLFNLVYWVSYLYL
T4 sequence (P31644 32-462): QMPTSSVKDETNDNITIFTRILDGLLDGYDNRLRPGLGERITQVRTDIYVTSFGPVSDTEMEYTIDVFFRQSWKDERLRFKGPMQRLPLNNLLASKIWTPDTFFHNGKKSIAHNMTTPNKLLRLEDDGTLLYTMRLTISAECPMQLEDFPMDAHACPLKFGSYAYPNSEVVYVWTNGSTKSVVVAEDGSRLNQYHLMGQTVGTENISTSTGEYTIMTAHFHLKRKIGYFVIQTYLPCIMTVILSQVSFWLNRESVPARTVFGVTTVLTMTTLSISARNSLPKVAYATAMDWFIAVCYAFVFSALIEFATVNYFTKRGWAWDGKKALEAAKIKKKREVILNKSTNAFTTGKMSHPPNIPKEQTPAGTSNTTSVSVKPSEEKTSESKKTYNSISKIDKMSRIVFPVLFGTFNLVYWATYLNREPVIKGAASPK
T4 sequence (P28472 26-473 partner): as the sequence (P28472 26-473 partner) above
T4 sequence (P18507 40-475): as the sequence (P18507 40-475) above
T3 sequence (P34903 29-492): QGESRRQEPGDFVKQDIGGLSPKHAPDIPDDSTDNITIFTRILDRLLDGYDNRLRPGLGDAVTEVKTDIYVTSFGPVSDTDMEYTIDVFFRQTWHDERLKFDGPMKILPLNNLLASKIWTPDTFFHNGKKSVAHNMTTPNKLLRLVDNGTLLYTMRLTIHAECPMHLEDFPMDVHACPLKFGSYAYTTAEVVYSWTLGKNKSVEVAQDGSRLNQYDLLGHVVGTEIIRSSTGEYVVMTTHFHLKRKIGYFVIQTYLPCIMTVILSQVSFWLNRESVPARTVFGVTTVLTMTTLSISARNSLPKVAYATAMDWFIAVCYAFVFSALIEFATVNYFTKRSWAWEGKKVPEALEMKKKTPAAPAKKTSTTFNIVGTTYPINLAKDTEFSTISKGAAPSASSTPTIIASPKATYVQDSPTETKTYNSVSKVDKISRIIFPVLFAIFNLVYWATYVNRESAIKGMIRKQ
T3 sequence (P28472 26-473 partner): as the sequence (P28472 26-473 partner) above
T3 sequence (P18507 40-475): as the sequence (P18507 40-475) above
T2 sequence (P47869 29-451): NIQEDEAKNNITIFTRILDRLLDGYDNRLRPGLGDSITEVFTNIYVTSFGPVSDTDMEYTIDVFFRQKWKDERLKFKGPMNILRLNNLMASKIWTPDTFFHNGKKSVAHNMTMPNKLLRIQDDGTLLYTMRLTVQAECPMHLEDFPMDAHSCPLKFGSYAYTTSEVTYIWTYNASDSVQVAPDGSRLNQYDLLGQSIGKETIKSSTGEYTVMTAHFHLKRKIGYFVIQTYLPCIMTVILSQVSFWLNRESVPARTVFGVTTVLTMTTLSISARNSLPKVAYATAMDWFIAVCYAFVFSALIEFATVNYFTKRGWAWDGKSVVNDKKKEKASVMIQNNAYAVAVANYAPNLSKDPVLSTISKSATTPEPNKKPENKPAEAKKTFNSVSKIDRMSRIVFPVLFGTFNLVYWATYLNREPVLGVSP
T2 sequence (P28472 26-473 partner): as the sequence (P28472 26-473 partner) above
T2 sequence (P18507 40-475): as the sequence (P18507 40-475) above
T5 sequence (Q16445 20-453): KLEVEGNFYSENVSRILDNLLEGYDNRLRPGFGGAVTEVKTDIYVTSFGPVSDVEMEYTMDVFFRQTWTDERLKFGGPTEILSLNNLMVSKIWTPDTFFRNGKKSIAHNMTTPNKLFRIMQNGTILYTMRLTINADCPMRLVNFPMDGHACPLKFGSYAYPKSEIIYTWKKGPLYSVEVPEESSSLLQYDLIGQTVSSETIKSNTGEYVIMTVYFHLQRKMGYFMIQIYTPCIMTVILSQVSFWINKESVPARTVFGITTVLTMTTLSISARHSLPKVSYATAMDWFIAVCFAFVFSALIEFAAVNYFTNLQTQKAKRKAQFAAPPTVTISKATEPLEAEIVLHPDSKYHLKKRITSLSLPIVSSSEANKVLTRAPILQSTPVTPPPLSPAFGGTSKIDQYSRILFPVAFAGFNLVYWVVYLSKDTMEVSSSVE
T5 sequence (P28472 26-473 partner): as the sequence (P28472 26-473 partner) above
T5 sequence (P18507 40-475): as the sequence (P18507 40-475) above
T6 sequence (P62813 28-455): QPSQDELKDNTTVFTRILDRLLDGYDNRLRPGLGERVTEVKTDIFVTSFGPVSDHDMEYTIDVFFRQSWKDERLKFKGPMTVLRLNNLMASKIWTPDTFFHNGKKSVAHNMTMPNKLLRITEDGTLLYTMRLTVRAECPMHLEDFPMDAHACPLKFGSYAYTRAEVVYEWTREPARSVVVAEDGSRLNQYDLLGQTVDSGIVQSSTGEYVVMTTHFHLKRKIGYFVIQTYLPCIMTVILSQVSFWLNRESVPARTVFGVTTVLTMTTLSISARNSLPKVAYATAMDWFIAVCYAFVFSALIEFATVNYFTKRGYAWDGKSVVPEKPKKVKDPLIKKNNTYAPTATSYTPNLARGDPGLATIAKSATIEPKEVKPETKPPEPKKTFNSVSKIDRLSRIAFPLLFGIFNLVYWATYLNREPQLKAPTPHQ
T6 sequence (P63079 26-473 partner): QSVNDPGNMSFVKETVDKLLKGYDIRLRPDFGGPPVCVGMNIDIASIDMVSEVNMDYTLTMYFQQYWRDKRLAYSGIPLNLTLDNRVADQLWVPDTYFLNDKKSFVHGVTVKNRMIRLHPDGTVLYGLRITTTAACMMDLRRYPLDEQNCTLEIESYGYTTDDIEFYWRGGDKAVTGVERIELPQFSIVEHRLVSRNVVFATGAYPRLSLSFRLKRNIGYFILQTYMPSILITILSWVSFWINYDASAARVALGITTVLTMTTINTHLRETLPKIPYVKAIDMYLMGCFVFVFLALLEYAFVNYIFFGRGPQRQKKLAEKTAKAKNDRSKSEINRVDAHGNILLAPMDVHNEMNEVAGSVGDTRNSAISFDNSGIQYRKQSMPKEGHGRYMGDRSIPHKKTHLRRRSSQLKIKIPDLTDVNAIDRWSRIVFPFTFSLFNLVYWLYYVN
T6 sequence (P18508 39-466): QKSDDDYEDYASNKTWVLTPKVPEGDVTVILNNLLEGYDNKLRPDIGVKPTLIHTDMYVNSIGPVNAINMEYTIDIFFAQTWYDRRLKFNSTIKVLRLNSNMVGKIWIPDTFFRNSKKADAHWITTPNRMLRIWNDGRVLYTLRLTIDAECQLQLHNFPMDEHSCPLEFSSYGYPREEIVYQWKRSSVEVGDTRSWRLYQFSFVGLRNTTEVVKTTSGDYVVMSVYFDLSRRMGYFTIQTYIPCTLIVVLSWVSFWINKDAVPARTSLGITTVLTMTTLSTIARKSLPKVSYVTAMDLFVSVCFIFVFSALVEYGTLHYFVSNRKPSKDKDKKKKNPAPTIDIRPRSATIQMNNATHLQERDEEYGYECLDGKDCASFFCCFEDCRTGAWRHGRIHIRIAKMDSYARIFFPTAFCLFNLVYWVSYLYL

SMILES	pKi (α6β3γ2 GABAA receptor)	% of GABA response, α3 (GABAA α3β3γ2 receptors) [%]	EtOH-maintained responding [1]	saccharin-maintained responding [1]	saccharin-maintained responding, total session ([1]; bilateral infusion in VP)	EtOH-maintained responding, total session [1, 2]	EtOH-maintained responding, total session [1, 3]	saccharin-maintained responding, total session [1, 4]	responding for sucrose (P rats)	EtOH responding (P rats)	EtOH responding 24 hours after administration (P rats)	anxiolytic effects in the plus-maze test (selected rodent lines)	other results
CCCOc1cc2c(cn1)[nH]c1ccccc12.Cl [3-PBC, 3-Propoxy-β-carboline hydrochloride]	< 6.00	119±6	without effect	without effect	only the 40 μg dose significantly reduced saccharin responding	dose-dependently reduced	significant dose-related reduction	significant elevation	fails to alter responding for sucrose	dose-dependently reduces EtOH responding	dissipated	capable of producing anxiolytic effects	selectivity for α1 relative to α2 (α1β3γ2 GABAA receptor; binding selectivity): 9.8 fold; selectivity for α1 relative to α3 (α1β3γ2 GABAA receptor; binding selectivity): 13 fold; selectivity for α1 relative to α5 (α1β3γ2 GABAA receptor; binding selectivity): 111 fold; pKi (α1β3γ2 GABAA receptor; recombinant αxβ3γ2, read-out: Ki α1): 8.28; pKi (α2β3γ2 GABAA receptor; recombinant αxβ3γ2, read-out: Ki α2): 7.28; pKi (α3β3γ2 GABAA receptor; recombinant αxβ3γ2, read-out: Ki α3): 7.16; pKi (α5β3γ2 GABAA receptor; recombinant αxβ3γ2, read-out: Ki α5): 6.23; % of GABA response, α1 (GABAA α1β3γ2 receptors): 113±4%; cumulative within session alcohol responding ([1]; VP infusion, initial 10 and 20 min intervals): significant reduction; saccharin-maintained responding, total session ([1]; i.p. 20 mg/kg): significantly suppressed; cumulative within session EtOH responding ([1]; i.p., first 10, 20 and 30 min intervals): suppressed the initiation of EtOH responding
CC(C)(C)OC(=O)c1cc2c(cn1)[nH]c1ccccc12 [βCCt, β-carboline-3-carboxylate t-butyl ester]	< 6.00	108±6	none of the βCCt treatments altered	none of the βCCt treatments altered	did not alter	dose-dependently reduced	all doses significantly suppressed	without effect	fails to alter responding for sucrose	significantly reduces EtOH responding	significantly reduce EtOH responding	capable of producing anxiolytic effects	pKi (α1β3γ2 GABAA receptor): 9.14; fold more selective than flumazenil at α1 sites (α1β3γ2 GABAA receptor; binding selectivity): over 20 fold; fold more selective than zolpidem at α1 sites (α1β3γ2 GABAA receptor; binding selectivity): 3.5 fold; pKi (α2β3γ2 GABAA receptor): 7.82; pKi (α3β3γ2 GABAA receptor): 7.72; pKi (α5β3γ2 GABAA receptor): 6.95; suppression of EtOH responding 24 hr post-drug ([1]; i.p. 40 mg/kg, 24 hr post-drug administration): 76 % of control levels
